The target in experiment [1] is T1, Bromodomain-containing protein 2 (Homo sapiens, UniProt P25440). Description: (§1) FP Competitive Binding Assay (No.350): Fluorescence Polarization (FP) competitive binding studies (see above) were carried out using the FAM labeled fluorescent probe Cpd. No. 350 to determine binding affinities of representative compounds to both BD1 and BD2 of BRD2, BRD3, and BRD4 proteins. Equilibrium dissociation constants (Id) values of Cpd. […] Final Cpd. […] Kd values of Cpd.
T1 sequence (P25440 whole entry): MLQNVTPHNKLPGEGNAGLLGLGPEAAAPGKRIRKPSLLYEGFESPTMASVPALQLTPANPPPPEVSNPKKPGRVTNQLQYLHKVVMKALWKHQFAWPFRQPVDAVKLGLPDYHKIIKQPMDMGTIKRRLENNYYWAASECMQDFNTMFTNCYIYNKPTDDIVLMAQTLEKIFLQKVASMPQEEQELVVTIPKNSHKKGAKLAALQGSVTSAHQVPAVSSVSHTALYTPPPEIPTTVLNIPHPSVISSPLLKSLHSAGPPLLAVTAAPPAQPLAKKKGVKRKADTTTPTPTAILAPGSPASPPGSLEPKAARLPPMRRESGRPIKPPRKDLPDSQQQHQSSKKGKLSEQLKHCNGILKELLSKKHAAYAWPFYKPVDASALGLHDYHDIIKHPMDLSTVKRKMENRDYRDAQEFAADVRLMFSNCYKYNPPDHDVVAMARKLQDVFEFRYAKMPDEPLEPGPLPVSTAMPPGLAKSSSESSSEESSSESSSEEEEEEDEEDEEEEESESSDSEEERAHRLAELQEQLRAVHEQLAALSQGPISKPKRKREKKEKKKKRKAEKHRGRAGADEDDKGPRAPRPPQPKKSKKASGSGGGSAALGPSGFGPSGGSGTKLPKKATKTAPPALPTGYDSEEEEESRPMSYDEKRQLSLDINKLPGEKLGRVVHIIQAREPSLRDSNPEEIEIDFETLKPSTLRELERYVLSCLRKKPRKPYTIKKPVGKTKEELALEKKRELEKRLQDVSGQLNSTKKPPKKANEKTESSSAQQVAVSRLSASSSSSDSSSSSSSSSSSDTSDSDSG

The target of experiment [2] is T2, Bromodomain-containing protein 3 (Homo sapiens, UniProt Q15059). Described as §1.
T2 sequence (Q15059 whole entry): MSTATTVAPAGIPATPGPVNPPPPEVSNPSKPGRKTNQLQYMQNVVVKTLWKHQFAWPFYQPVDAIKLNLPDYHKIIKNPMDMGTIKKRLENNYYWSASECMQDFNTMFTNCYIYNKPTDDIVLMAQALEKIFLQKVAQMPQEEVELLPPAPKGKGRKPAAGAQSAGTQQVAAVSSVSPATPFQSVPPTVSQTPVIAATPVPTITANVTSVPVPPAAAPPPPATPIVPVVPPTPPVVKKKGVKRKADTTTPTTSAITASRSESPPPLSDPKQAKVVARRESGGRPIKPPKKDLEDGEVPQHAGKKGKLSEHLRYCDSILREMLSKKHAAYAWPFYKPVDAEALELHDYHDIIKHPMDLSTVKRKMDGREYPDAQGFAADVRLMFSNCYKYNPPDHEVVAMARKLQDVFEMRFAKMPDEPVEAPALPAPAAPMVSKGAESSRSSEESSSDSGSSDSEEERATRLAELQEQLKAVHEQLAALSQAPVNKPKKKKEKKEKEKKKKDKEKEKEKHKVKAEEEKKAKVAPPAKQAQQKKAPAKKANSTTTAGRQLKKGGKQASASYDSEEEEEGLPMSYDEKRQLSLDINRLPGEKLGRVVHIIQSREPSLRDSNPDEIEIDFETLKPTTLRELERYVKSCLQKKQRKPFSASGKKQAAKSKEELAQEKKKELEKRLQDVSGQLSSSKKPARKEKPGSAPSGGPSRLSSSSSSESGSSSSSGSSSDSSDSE
Experiment [3] concerns the target T2, Bromodomain-containing protein 3. Described as §1. This is another data set of the same source.
Experiment [4] deals with Bromodomain-containing protein 4 (Homo sapiens, UniProt O60885). Described as §1.
Experiment [5] addresses T1, Bromodomain-containing protein 2. Described as §1. The source holds these as a separate data set.

The structures appear in SMILES notation.

The values below come from ChEMBL document CHEMBL5725377, “BET bromodomain inhibitors and therapeutic methods using the same” (2017).

A word on the Ki: it is a dissociation constant, usually derived from enzyme kinetics or from competition with a known ligand. Read a low Ki as tighter binding.

Regarding `COc1cc2c(cc1-c1c(C)noc1C)[nH]c1nc(C)nc(-c3cc(C(=O)NC4CCN(C)CC4)cc(C(C)(C)C)c3)c12`, the Ki in experiment [1] was 5.2 nM; in experiment [2], 1.1 nM; in experiment [3], 6.3 nM; in experiment [4], 9 nM; in experiment [5], 2.2 nM.

Take `COc1cc2c(cc1-c1c(C)noc1C)[nH]c1nc(C)nc(-c3ccc(NC(=O)N4CCN(C)CC4)c4ccccc34)c12`: the Ki in experiment [1] is 2.6 nM; in experiment [2], 0.82 nM; in experiment [3] it was 7.5 nM; in experiment [4] it was 11 nM; in experiment [5], 4.6 nM.

Consider `COc1cc2c(cc1-c1c(C)noc1C)[nH]c1nc(C)nc(-c3ccc(NC(=O)N4CCN(C5COC5)CC4)c4ccccc34)c12`, for which the Ki is 7.8 nM in experiment [1]; 3.5 nM in experiment [2]; 23 nM in experiment [3]; 39 nM in experiment [4]; 17 nM in experiment [5].
